# Reference: PubChem BioAssay AID330 (DTP/NCI, 2004)
# Several values for one entry are separate records, joined by “and”; a condition that tells them apart may be missing. Equal values may be shown once. Inconclusive results and toxic doses are left out.
# Tested on: P388 leukemia ip, CD2F1 mice, survival T/C
# Assay: NCI In Vivo Anticancer Drug Screen. Data for tumor model P388 Leukemia (intraperitoneal) in CD2F1 (CDF1) mice
# Settings: endpoint: median survival time, higher = longer survival
# Procedure, shortened: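 Mice carrying the transplanted tumor received test compound or vehicle. Survival was recorded in each group, and the value is the treated-group measurement divided by that of the vehicle-treated control group.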
# [1] = dose: 60.0 mg/kg/injection, schedule: Q01DX005 (ip), vehicle: saline with Tween-80
# [2] = dose: 120.0 mg/kg/injection, schedule: Q01DX005 (ip), vehicle: saline with Tween-80
# [3] = dose: 240.0 mg/kg/injection, schedule: Q01DX005 (ip), vehicle: saline with Tween-80
# [4] = dose: 50.0 mg/kg/injection, schedule: Q01DX009 (ip), vehicle: Klucel (hydroxypropylcellulose) (HPC)
# [5] = dose: 100.0 mg/kg/injection, schedule: Q01DX009 (ip), vehicle: Klucel (hydroxypropylcellulose) (HPC)
# [6] = dose: 200.0 mg/kg/injection, schedule: Q01DX009 (ip), vehicle: Klucel (hydroxypropylcellulose) (HPC)
compound,measurement,setting,value
Cn1cnc2cc(NCc3ccccc3)c([N+](=O)[O-])cc2c1=O,T/C,"dose: 100.0 mg/kg/injection, schedule: Q04DX003 (ip), vehicle: Klucel (hydroxypropylcellulose) (HPC)",100 % of control
same,T/C,"dose: 200.0 mg/kg/injection, schedule: Q04DX003 (ip), vehicle: Klucel (hydroxypropylcellulose) (HPC)",106 % of control
same,T/C,"dose: 400.0 mg/kg/injection, schedule: Q04DX003 (ip), vehicle: Klucel (hydroxypropylcellulose) (HPC)",101 % of control
O=C1CSC(c2cccc(O)c2)N1c1nncs1 (stereo not given),T/C,[1],114 % of control
same,T/C,[2],107 % of control
same,T/C,[3],95 % of control
CC(C(=O)O)N(CCC#N)CCC#N (stereo not given),T/C,"dose: 50.0 mg/kg/injection, schedule: Q01DX005 (ip), vehicle: saline",95 % of control
same,T/C,"dose: 100.0 mg/kg/injection, schedule: Q01DX005 (ip), vehicle: saline",100 % of control
same,T/C,"dose: 200.0 mg/kg/injection, schedule: Q01DX005 (ip), vehicle: saline",95 % of control
CC(=Nc1ccc(C)cc1N)c1c(O)cc(C)oc1=O,T/C,"dose: 60.0 mg/kg/injection, schedule: Q01DX005 (ip), vehicle: Klucel (hydroxypropylcellulose) (HPC)",95 % of control
same,T/C,"dose: 120.0 mg/kg/injection, schedule: Q01DX005 (ip), vehicle: Klucel (hydroxypropylcellulose) (HPC)",96 % of control
same,T/C,"dose: 240.0 mg/kg/injection, schedule: Q01DX005 (ip), vehicle: Klucel (hydroxypropylcellulose) (HPC)",101 % of control
O=C1C=C(c2ccccc2)S(=O)(=O)c2cc(O)ccc21,T/C,"dose: 50.0 mg/kg/injection, schedule: Q01DX005 (ip), vehicle: saline with Tween-80",119 % of control
same,T/C,"dose: 100.0 mg/kg/injection, schedule: Q01DX005 (ip), vehicle: saline with Tween-80",114 % of control
same,T/C,"dose: 200.0 mg/kg/injection, schedule: Q01DX005 (ip), vehicle: saline with Tween-80",110 % of control
C=CCOCC1CO1 (stereo not given),T/C,"dose: 12.5 mg/kg/injection, schedule: Q01DX009 (ip), vehicle: saline",106 % of control
same,T/C,"dose: 25.0 mg/kg/injection, schedule: Q01DX009 (ip), vehicle: saline",97 % of control
same,T/C,"dose: 50.0 mg/kg/injection, schedule: Q01DX009 (ip), vehicle: saline",103 % of control
same,T/C,"dose: 50.0 mg/kg/injection, schedule: Q04DX003 (ip), vehicle: saline with Tween-80",100 % of control
same,T/C,"dose: 100.0 mg/kg/injection, schedule: Q01DX009 (ip), vehicle: saline",100 % of control
same,T/C,"dose: 100.0 mg/kg/injection, schedule: Q04DX003 (ip), vehicle: saline with Tween-80",90 % of control
same,T/C,"dose: 132.0 mg/kg/injection, schedule: Q04DX003 (ip), vehicle: saline with Tween-80",109 % of control
same,T/C,"dose: 200.0 mg/kg/injection, schedule: Q01DX009 (ip), vehicle: saline",100 % of control
same,T/C,"dose: 200.0 mg/kg/injection, schedule: Q04DX003 (ip), vehicle: saline with Tween-80",109 % of control
same,T/C,"dose: 300.0 mg/kg/injection, schedule: Q04DX003 (ip), vehicle: saline with Tween-80",122 % of control
Cc1nc(C2(O)C(C3COC(C)(C)O3)OC3OC(C)(C)OC32)no1 (stereo not given),T/C,[1],100 % of control
same,T/C,[2],100 % of control
same,T/C,[3],100 % of control
Cc1nn(C(=O)c2ccncc2)c(C)c1N=Nc1ccc(-c2ccc(N)cc2)cc1,T/C,[4],99 % of control
same,T/C,[5],90 % of control
same,T/C,[6],90 % of control
CC1=CCC2C(C)(C)CCCC2(C)C1CCC(C)(O)C(O)CO (stereo not given),T/C,"dose: 25.0 mg/kg/injection, schedule: Q01DX005 (ip), vehicle: Klucel + Tween-80",98 % of control
same,T/C,"dose: 50.0 mg/kg/injection, schedule: Q01DX005 (ip), vehicle: Klucel + Tween-80",101 % of control
same,T/C,"dose: 100.0 mg/kg/injection, schedule: Q01DX005 (ip), vehicle: Klucel + Tween-80",98 % of control
same,T/C,"dose: 200.0 mg/kg/injection, schedule: Q01DX005 (ip), vehicle: Klucel + Tween-80",100 % of control
Cc1cn(CCCCCCOc2c3occc3cc3ccc(=O)oc23)c(=O)[nH]c1=O,T/C,"dose: 50.0 mg/kg/injection, schedule: Q01DX005 (ip), vehicle: Klucel (hydroxypropylcellulose) (HPC)",92 % of control
same,T/C,"dose: 50.0 mg/kg/injection, schedule: Q04DX002 (ip), vehicle: Klucel (hydroxypropylcellulose) (HPC)",98 % of control
same,T/C,"dose: 100.0 mg/kg/injection, schedule: Q04DX002 (ip), vehicle: Klucel (hydroxypropylcellulose) (HPC)",104 % of control
same,T/C,"dose: 200.0 mg/kg/injection, schedule: Q01DX005 (ip), vehicle: Klucel (hydroxypropylcellulose) (HPC)",88 % of control
same,T/C,"dose: 200.0 mg/kg/injection, schedule: Q04DX002 (ip), vehicle: Klucel (hydroxypropylcellulose) (HPC)",96 % of control
N#Cc1c(Cl)nsc1-c1ccc([N+](=O)[O-])cc1,T/C,[4],119 % of control
same,T/C,[5],92 % of control
same,T/C,[6],103 % of control
COc1cccc2c1C(=O)c1c(O)c3c(c(O)c1C2=O)C[C@@](O)(C(=O)CSc1nnc(C)s1)C[C@@H]3OC1CC(N)C(O)C(C)O1 (stereo not given in full),T/C,"dose: 6.25 mg/kg/injection, schedule: Q01DX009 (ip), vehicle: water",154 % of control
same,T/C,"dose: 12.5 mg/kg/injection, schedule: Q01DX009 (ip), vehicle: water",155 % of control and 158 % of control
